# From patent US20120108501A1, “Protease Inhibitors” (priority 2009, published 2012)
# Structures can show the parent of a compound that is named as a salt. Where two headings read alike, the source gives them in different places.
# Key:
# [1] = Pharmacokinetics of PEGylated protease inhibitor prodrugs in rats; assay type: in vivo, male Sprague-Dawley rats; set-up: AUCall / AUC: concentration or dose not given beside the values; settings: prodrug in plasma; for AUCall / Cmax / AUC: mean ± SD; for half-life: read-out: t½(z) (converted); for concentration at 24 hr: read-out: Cmin(24 hr)
# Protocol: (§1) Pharmacokinetic analysis of protease inhibitors described herein was conducted. To evaluate the pharmacokinetics of PEGylated protease inhibitor conjugates with releasable lipophilic attachments, test compounds were administered to male Sprague-Dawley rats.
# (§2) At various times following test article administration, serial blood samples were collected from indwelling jugular vein catheters and transferred to micro-tubes containing 7.5 μL of 20% w/v K2EDTA as an anticoagulant. Following processing of the blood samples to plasma (10 minutes at 10000 rpm, Centrifuge Model: Kubota 3500), plasma concentrations of the test article or corresponding PEGylated molecule released from the test article was measured using LC-MS/MS methods. Pharmacokinetic parameters were estimated using noncompartmental methods.
# Table 3 presents a summary of pharmacokinetic parameters of PEGylated protease inhibitor prodrugs, wherein Cmax is the maximum (peak) concentration, AUCall represents the area under the concentration-time curve from zero to time of last concentration value, T½ is half life, and MRTlast is the mean residence time to last observable concentration
# [2] = Pharmacokinetics of released PEGylated protease inhibitor following P.O. administration of prodrugs in rats; assay type: in vivo, male Sprague-Dawley rats; set-up: AUCall Mean: concentration or dose not given beside the values; settings: rats (n = 4-5)
# Protocol: as §1, §2
# [3] = mPEG3-atazanavir in plasma after PO administration of mPEG3-ATV or of the listed prodrug
# [4] = mPEG5-atazanavir in plasma after PO administration of mPEG5-ATV or of the listed prodrug
# [5] = male, Sprague-Dawley, rat, in vivo
# [6] = male, Sprague-Dawley, rat, in vivo, read-out: Cmax
# [7] = male, Sprague-Dawley, rat, oral
# [8] = male, Sprague-Dawley, rat, oral, read-out: Cmax
compound,measurement,setting,value
"COCCOCCOCCOC(=O)NC(C(=O)NC(Cc1ccccc1)C(CN(Cc1ccc(-c2ccccn2)cc1)NC(=O)C(NC(=O)OC)C(C)(C)C)OC(=O)COCCOC(=O)C(N)CC(C)C)C(C)(C)C.Cl (stereo not shown) [mPEG3-Atazanavir-CME-Leucine HCl, mPEG3-Atazanavir-CME-Leucine]",MRTlast,[1],3.74 ± 6.09 h
same,AUCall,[1],13.1 ± 17.2 ng·h/mL
same,Cmax,[1],11.5 ± 12.8 ng/mL
same,AUCall Mean,[2]; [3],85.9 ng·h/mL
same,Cmax Mean,[2]; [3],4.39 ng/mL
same,MRT last Mean,[2]; [3],17.4 h
same,Tmax* Median,[2]; [3],9.00 h
"COCCOCCOCCOCCOCCOC(=O)N[C@H](C(=O)N[C@@H](Cc1ccccc1)[C@H](CN(Cc1ccc(-c2ccccn2)cc1)NC(=O)[C@@H](NC(=O)OC)C(C)(C)C)OC(=O)[C@H](Cc1ccccc1)NC(=O)[C@@H](N)Cc1ccccc1)C(C)(C)C.Cl [Phe-Phe-mPEG5-Atazanavir HCl, Phe-Phe-mPEG5-atazanavir hydrochloride]",MRTlast,[1],1.49 ± 0.412 h
same,t½(z),[1],2.01 h
same,AUCall,[1],31.8 ± 13.7 ng·h/mL
same,Cmax,[1],17.9 ± 9.09 ng/mL
same,AUCall Mean,[2]; [4],94.3 ng·h/mL
same,Cmax Mean,[2]; [4],12.9 ng/mL
same,MRT last Mean,[2]; [4],9.22 h
same,Tmax Median,[2]; [4],0.750 h
"COCCOCCOCCOC(=O)NC(C(=O)NC(Cc1ccccc1)C(CN(Cc1ccc(-c2ccccn2)cc1)NC(=O)C(NC(=O)OC)C(C)(C)C)OC(=O)C(N)CC(C)C)C(C)(C)C.Cl [mono-mPEG3-Atazanavir-L-Leucine, mPEG3-Atazanavir-L-Leucine]",MRTlast,[1],2.73 ± 0.912 h
same,t½(z),[1],3.33 ± 0.958 h
same,AUCall,[1],1930 ± 1170 ng·h/mL
same,Cmax,[1],470 ± 179 ng/mL
same,AUCall Mean,[2]; [3],347 ng·h/mL
same,Cmax Mean,[2]; [3],66.0 ng/mL
same,MRT last Mean,[2]; [3],4.14 h
same,Tmax* Median,[2]; [3],0.750 h
"COCCOCCOCCOC(=O)N[C@H](C(=O)N[C@@H](Cc1ccccc1)[C@H](CN(Cc1ccc(-c2ccccn2)cc1)NC(=O)[C@@H](NC(=O)OC)C(C)(C)C)OC(=O)[C@H](Cc1ccccc1)NC(=O)[C@@H](N)C(C)C)C(C)(C)C [Val-Phe-mPEG3-Atazanavir, Val-Phe-mPEG3-Atazanavir Hydrochloride]",MRT last,[1]; [5],1.68 ± 0.297 h
same,AUC,[1]; [5],700 ± 361 ng·h/mL
same,Cmax,[1]; [6],334 ± 133 ng/mL
same,half-life,[1]; [5],2.25 ± 1.28 h
COCCOCCOCCOCCOCCOC(=O)N[C@H](C(=O)N[C@@H](Cc1ccccc1)[C@H](CN(Cc1ccc(-c2ccccn2)cc1)NC(=O)[C@@H](NC(=O)OC)C(C)(C)C)OC(=O)[C@@H](N)CC(C)C)C(C)(C)C [mPEG5-Atazanavir-L-Leucine],MRT last,[1]; [7],1.71 ± 0.327 h
same,AUC,[1]; [7],487 ± 348 ng·h/mL
same,Cmax,[1]; [8],191 ± 85.6 ng/mL
same,half-life,[1]; [7],2.37 ± 2.19 h
Acetate Ester-mPEG5-Atazanavir [Acetate-OCHMe—OCO2-mPEG5-Atazanavir],MRTlast,[1],6.21 ± 3.38 h
same,t½(z),[1],4.82 ± 3.10 h
same,AUCall,[1],616 ± 156 ng·h/mL
same,Cmax,[1],115 ± 29.0 ng/mL
same,AUCall Mean,[2]; [4],616 ng·h/mL
same,Cmax Mean,[2]; [4],115 ng/mL
same,MRT last Mean,[2]; [4],6.21 h
same,Tmax Median,[2]; [4],0.750 h
COCCOCCOCCOC(=O)NC(C(=O)NC(Cc1ccccc1)C(CN(Cc1ccc(-c2ccccn2)cc1)NC(=O)C(NC(=O)OC)C(C)(C)C)OC(=O)CCCC(=O)OC1C(O)C(O)OC1C(O)CO)C(C)(C)C (stereo not shown),MRTlast,[1],1.86 ± 1.49 h
same,t½(z),[1],3.24 ± 3.26 h
same,Cmin(24 hr),[1],0.177 ± 0.353 ng/mL
same,AUCall,[1],221 ± 57.1 ng·h/mL
same,Cmax,[1],167 ± 89.6 ng/mL
same,AUCall Mean,[2]; [3],84.4 ng·h/mL
same,Cmax Mean,[2]; [3],3.62 ng/mL
same,MRT last Mean,[2]; [3],22.5 h
same,Tmax* Median,[2]; [3],0.250 h
COCCOCCOCCOCCOCCOC(=O)NC(C(=O)NC(Cc1ccccc1)C(CN(Cc1ccc(-c2ccccn2)cc1)NC(=O)C(NC(=O)OC)C(C)(C)C)OC(=O)COCCOC(=O)C(N)Cc1ccccc1)C(C)(C)C.Cl (stereo not shown) [mPEG5-Atazanavir-CME-phenylalanine HCl],MRTlast,[1],0.25 h
same,AUCall,[1],0.0554 ± 0.096 ng·h/mL
same,Cmax,[1],0.222 ± 0.384 ng/mL
same,AUCall Mean,[2]; [4],54.1 ng·h/mL
same,Cmax Mean,[2]; [4],2.84 ng/mL
same,MRT last Mean,[2]; [4],14.0 h
same,Tmax Median,[2]; [4],12.0 h
"COCCOCCOCCOC(=O)N[C@H](C(=O)N[C@@H](Cc1ccccc1)[C@H](CN(Cc1ccc(-c2ccccn2)cc1)NC(=O)[C@@H](NC(=O)OC)C(C)(C)C)OC(=O)[C@H](Cc1ccccc1)NC(=O)[C@@H](N)Cc1ccccc1)C(C)(C)C [Phe-Phe-mPEG3-Atazanavir, Phe-Phe-mPEG3-Atazanavir Hydrochloride]",MRT last,[1]; [5],6.27 ± 1.31 h
same,concentration at 24 hr,[1]; [5],3.15 ± 0.946 ng/mL
same,AUC,[1]; [5],609 ± 157 ng·h/mL
same,Cmax,[1]; [6],112 ± 31.6 ng/mL
same,half-life,[1]; [5],8.31 ± 1.21 h
"COCCOCCOCCOCCOCCOC(=O)N[C@H](C(=O)N[C@@H](Cc1ccccc1)[C@H](CN(Cc1ccc(-c2ccccn2)cc1)NC(=O)[C@@H](NC(=O)OC)C(C)(C)C)OC(=O)CNC(=O)[C@@H](N)Cc1ccccc1)C(C)(C)C [Phe-Gly-mPEG5-Atazanavir HCl, Phe-Gly-mPEG5-Atazanavir Hydrochloride]",MRT last,[1]; [5],0.357 ± 0.129 h
same,AUC,[1]; [5],0.341 ± 0.313 ng·h/mL
same,Cmax,[1]; [6],0.895 ± 0.808 ng/mL
"COCCOCCOCCOCCOCCOC(=O)N[C@H](C(=O)N[C@@H](Cc1ccccc1)[C@H](CN(Cc1ccc(-c2ccccn2)cc1)NC(=O)[C@@H](NC(=O)OC)C(C)(C)C)OC(=O)CNC(=O)[C@@H](N)C(C)C)C(C)(C)C [Val-Gly-mPEG5-Atazanavir HCl, Val-Gly-mPEG5-Atazanavir Hydrochloride]",MRT last,[1]; [5],0.779 ± 0.513 h
same,AUC,[1]; [5],14.9 ± 18.7 ng·h/mL
same,Cmax,[1]; [6],33.7 ± 53.9 ng/mL
same,half-life,[1]; [5],2.95 h
"COCCOCCOCCOCCOCCOC(=O)N[C@H](C(=O)N[C@@H](Cc1ccccc1)[C@H](CN(Cc1ccc(-c2ccccn2)cc1)NC(=O)[C@@H](NC(=O)OC)C(C)(C)C)OC(=O)CNC(=O)[C@@H](N)CC(C)C)C(C)(C)C [Leu-Gly-mPEG5-Atazanavir HCl, Leu-Gly-mPEG5-Atazanavir Hydrochloride]",MRT last,[1]; [5],2.85 ± 3.68 h
same,AUC,[1]; [5],1.53 ± 2.93 ng·h/mL
same,Cmax,[1]; [6],0.479 ± 0.572 ng/mL
"COCCOCCOCCOCCOCCOC(=O)N[C@@H](C(=O)N[C@@H](Cc1ccccc1)[C@H](CN(Cc1ccc(-c2ccccn2)cc1)NC(=O)[C@H](NC(=O)OC)C(C)(C)C)OC(=O)CCCC(=O)O[C@@H]1[C@@H](O)[C@@H](O)O[C@@H]1[C@H](O)CO)C(C)(C)C [(5R,10S,11S,14R)-11-benzyl-5,14-di-tert-butyl-3,6,13,16-tetraoxo-8-(4-(pyridin-2-yl)benzyl)-2,17,20,23,26,29,32-heptaoxa-4,7,8,12,15-pentaazatritriacontan-10-yl (2R,3R,4R,5S)-2-((R)-1,2-dihydroxyethyl)-4,5-dihydroxytetrahydrofuran-3-yl glutarate]",MRT last,[1]; [7],11.4 ± 7.37 h
same,concentration at 24 hr,[1]; [7],2.64 ± 2.87 ng/mL
same,AUC,[1]; [7],78.5 ± 78.2 ng·h/mL
same,Cmax,[1]; [8],13.1 ± 12.4 ng/mL
"COCCOCCOCCOCCOCCOC(=O)N[C@H](C(=O)N[C@@H](Cc1ccccc1)[C@H](CN(Cc1ccc(-c2ccccn2)cc1)NC(=O)[C@@H](NC(=O)OC)C(C)(C)C)OC(=O)[C@H](CC(C)C)NC(=O)[C@@H](N)Cc1ccccc1)C(C)(C)C [Phe-Leu-mPEG5-Atazanavir HCl, Phe-Leu-mPEG5-Atazanavir Hydrochloride]",MRT last,[1]; [5],1.46 ± 0.396 h
same,AUC,[1]; [5],42.4 ± 11.6 ng·h/mL
same,Cmax,[1]; [6],17 ± 4.2 ng/mL
same,half-life,[1]; [5],1.52 h
same,Cmin(24 hr),[1],BLQ
